“Also recorded” adds a separate entry of the source. Residues, ends and D or L forms follow the SMILES beside them. *: point of attachment. X1 = O=C(Cc1ccc2ccccc2c1)N[C@H](Cc1ccccc1)C(=O)N[C@H](Cc1ccccc1)C(=O)N[C@H](CCCCN*)C(=O)N[C@H](Cc1ccc(O)cc1)C(=O)O
Columns and labels:
[1] = molecular target: proteinase K (Parengyodontium album, UniProt P06873); experiment: Enzymatic proteolysis catalyzed by proteinase K, LC-MS; assay type: in vitro ADME; conditions: for proteolytic products with proteinase K: 5 mM peptide, proteinase K 5 U/mL, Tris-HCl buffer pH 7.0, 24 h, LC-MS
Chain of proteinase K (Parengyodontium album, UniProt P06873) (P06873 106-384, species assumed): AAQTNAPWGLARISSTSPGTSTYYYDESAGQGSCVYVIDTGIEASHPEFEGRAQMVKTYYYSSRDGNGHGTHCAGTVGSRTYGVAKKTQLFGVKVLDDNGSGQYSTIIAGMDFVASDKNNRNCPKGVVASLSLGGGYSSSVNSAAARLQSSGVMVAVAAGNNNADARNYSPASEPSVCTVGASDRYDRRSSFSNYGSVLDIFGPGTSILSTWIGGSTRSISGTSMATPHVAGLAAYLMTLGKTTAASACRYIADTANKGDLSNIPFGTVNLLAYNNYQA
Protocol: After having obtained the peptides 1 and 2, we examined the enzymatic proteolysis of 1 and 2 catalyzed by proteinase K. We added proteinase K, a powerful endopeptidase, to the solutions of 1 and 2 (5 mM, pH 7.0, in Tris-HCl buffer). […] Then, we conducted a time-dependent CD analysis to examine the change of the secondary structural conformations of 1 and 2 during the proteolysis catalyzed by proteinase K in Tris-HCl buffer at pH 7.0. […] During the transition from micelles to fibrils, the CD signal at 210 nm reverses the sign, likely due to the self-assembly of Nap-ffky to helical fibrils. Analyzing the CD spectra by the Contin-LL analysis program, we estimated the percentage of each conformation, further confirming the trend and the assignment of the dominant conformation. As shown in Figure 2C and Figure 2F, the initial state of peptide 1 has more β-strand conformations than that of peptide 2. With increasing proteolysis time, the CD spectra indicate that the cleavage of 1 or 2 results in more assemblies that favor β-strand conformations (Figure 2D and Figure 2E). In addition, the ratio of the β-strand conformation resulted from the cleavage of 1 being slightly faster than that of 2.
Figure 2 A) LC–MS spectrum of the proteolytic products after 1 (5 mM) was incubated with proteinase K (5 U/mL) for 24 h. B) Time-dependent circular dichroism (CD) spectra of 1 incubated with proteinase K in Tris-HCl buffer at pH 7.0. C) CD simulation of the mixture from the spectra in B. D) LC–MS spectrum of the proteolytic products after 2 (5 mM) was incubated with proteinase K (5 U/mL) for 24 h. E) Time-dependent CD spectra of 2 incubated with proteinase K in Tris-HCl buffer at pH 7.0. F) CD simulation of the mixture from the spectra in E.

[2] = assay type: in vitro ADME; conditions: 500 μM peptide in HeLa cell lysate, 24 h, 37 °C, lysis buffer pH 7.4, LC-MS
Protocol: (§1) We investigated the cell compatibility of 1 and 2 by incubation with two kinds of mammalian cells, HeLa and Saos-2 cells, using the 3-(4,5-dimethylthiazol-2-yl)-2,5-diphenyl tetrazolium bromide (MTT) assay. The cell viability of HeLa and Soas-2 cells after being incubated with 1 (400 μM) for three days are about 90% and 80%, respectively. […] To confirm that 1 and 2 convert from micelles to nanofibers in a cellular environment, we incubated of 1 or 2 at 500 μM in the lysates of HeLa cells (Figure S5, Supporting Information File 1) and examined the amount of each component in % by LC–MS. After 24 h incubation, 44% of 1 or 39% of 2, was cleaved to Nap-ffky, which self-assembles as part for the nanofibers. […] Then, we used confocal laser scanning microscopy (CLSM) to examine whether these compounds deliver RPE into HeLa cells. After mixing R-phycoerythrin (RPE), a red fluorescent protein, with 1 or 2 at different concentrations, we incubated the mixtures with HeLa cells for 2 h and 4 h. […]
reaction and to dissolve the purple formazan. After incubation of the cells at 37 ° C overnight, the absorbance of each well at 595 nm was measured in a multimode microplate reader. Three independent experiments were performed, with an average ± […]
Confocal microscopy: Cells in the exponential growth phase were seeded in a glass-bottomed culture chamber at 1 × 10^5 cells/well. […]

[3] = molecular target: enterokinase (ENTK) (Homo sapiens, UniProt P98073); experiment: Proteolysis by enterokinase (ENTK); assay type: in vitro ADME; conditions: Figures S3 and S4
Chain of enterokinase (ENTK) (Homo sapiens, UniProt P98073) (P98073 whole entry, species assumed): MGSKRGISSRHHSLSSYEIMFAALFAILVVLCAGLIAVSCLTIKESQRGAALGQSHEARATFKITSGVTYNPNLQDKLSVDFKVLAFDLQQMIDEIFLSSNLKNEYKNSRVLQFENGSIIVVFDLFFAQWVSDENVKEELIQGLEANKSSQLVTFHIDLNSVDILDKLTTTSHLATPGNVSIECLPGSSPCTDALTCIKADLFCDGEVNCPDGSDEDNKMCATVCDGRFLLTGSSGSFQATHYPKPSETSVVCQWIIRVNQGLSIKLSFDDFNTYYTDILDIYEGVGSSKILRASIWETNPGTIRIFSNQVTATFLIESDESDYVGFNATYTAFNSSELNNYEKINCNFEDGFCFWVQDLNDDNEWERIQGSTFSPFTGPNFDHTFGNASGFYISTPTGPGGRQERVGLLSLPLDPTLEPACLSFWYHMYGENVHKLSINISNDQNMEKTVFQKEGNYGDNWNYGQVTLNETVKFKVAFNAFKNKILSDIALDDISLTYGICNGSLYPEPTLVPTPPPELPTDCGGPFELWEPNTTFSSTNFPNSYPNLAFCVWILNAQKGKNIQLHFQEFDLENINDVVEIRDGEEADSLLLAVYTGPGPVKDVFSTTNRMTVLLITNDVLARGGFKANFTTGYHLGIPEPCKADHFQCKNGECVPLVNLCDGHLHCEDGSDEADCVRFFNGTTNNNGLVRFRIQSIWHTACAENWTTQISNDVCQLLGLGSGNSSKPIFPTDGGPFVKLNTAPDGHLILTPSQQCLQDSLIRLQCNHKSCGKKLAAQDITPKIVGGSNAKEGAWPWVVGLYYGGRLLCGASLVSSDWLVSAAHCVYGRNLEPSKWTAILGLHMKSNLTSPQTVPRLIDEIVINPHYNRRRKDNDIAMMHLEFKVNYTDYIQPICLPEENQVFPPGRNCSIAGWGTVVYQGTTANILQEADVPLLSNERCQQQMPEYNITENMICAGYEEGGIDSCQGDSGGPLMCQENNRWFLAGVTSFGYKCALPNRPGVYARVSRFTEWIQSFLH
From the text: In addition, unlike the FLAG-tag-based branched peptides, 1 and 2 are proteolytic-resistant to enterokinase (ENTK, Figures S3 and S4, Supporting Information File 1).

[4] = tested on: enterokinase (ENTK); experiment: enterokinase (ENTK)
[5] = lysates of HeLa cells, in 10 mmol of lysis buffer at pH 7.4; conditions: 37 °C, up to 24 h
[6] = tested on: proteinase K; experiment: proteinase K (5 U/mL) in Tris-HCl buffer, pH 7.0; conditions: up to 24 h
[7] = tested on: HeLa cells; experiment: MTT cell viability assay, HeLa cells; assay type: cell-based; conditions: 400 μM, three days, absorbance 595 nm, three independent experiments
Protocol: as §1, with “cells.” for “cells. After mixing R-phycoerythrin (RPE), a red fluorescent protein, with 1 or 2 at different concentrations, we incubated the mixtures with HeLa cells for 2 h and 4 h.”
(§2) Circular dichroism (CD) analysis : CD spectra were recorded ([…]) using a JASCO 810 spectrometer under a nitrogen atmosphere. […] The percentage of the secondary structures in different samples was calculated by the programs provided in DichroWeb. […]
(§3) reaction and to dissolve the purple formazan. After incubation of the cells at 37 ° C overnight, the absorbance of each well at 595 nm was measured in a multimode microplate reader. […]

[8] = tested on: Saos-2 cells; experiment: MTT cell viability assay, Saos-2 cells; assay type: cell-based; conditions: 400 μM, three days, absorbance 595 nm, three independent experiments
Protocol: as §1, with “cells.” for “cells. After mixing R-phycoerythrin (RPE), a red fluorescent protein, with 1 or 2 at different concentrations, we incubated the mixtures with HeLa cells for 2 h and 4 h.”
as §2, §3

| Compound | proteolytic products with proteinase K [1] | stability towards the proteolysis (acetylated versus non-acetylated branch) ([1]; proteinase K, compared with 1) | amount cleaved to Nap-ffky [2] [%] | resistance to proteolysis by enterokinase [3] | not cleaved [4] | fragment found [5] | fragment found [6] | cell viability [7] | cell viability [8] [%] |
| --- | --- | --- | --- | --- | --- | --- | --- | --- | --- |
| CC[C@H](C)[C@H](NC(=O)[C@H](CC(C)C)NC(=O)[C@H](CC(C)C)NC(=O)[C@H](CC(=O)O)NC(=O)[C@H](CC(=O)O)NC(=O)[C@H](CC(=O)O)NC(=O)[C@H](CCC(=O)O)NC(=O)[C@H](CC(=O)O)NC(C)=O)C(=O)NCC(=O)NCCCC[C@@H](NC(=O)[C@@H](Cc1ccccc1)NC(=O)[C@@H](Cc1ccccc1)NC(=O)Cc1ccc2ccccc2c1)C(=O)N[C@H](Cc1ccc(O)cc1)C(=O)O [compound 2, Nap-ffk(AcNH-DEDDDLLIG)y] (Ac-DEDDDLLIG-X1) | proteolytically hydrolyzes into four parts, including DEDDDLLIG, DEDDDLL, DEDDDL, and Nap-ffky | enhanced stability towards the proteolysis | 39 | proteolytic-resistant |  |  |  |  |  |
| Nap-ffk(NH2-DEDDDLLIG)y |  |  |  |  | proteolytic-resistant to enterokinase | Nap-ffky, 24 h | DEDDDLLIG, 24 h; also recorded: Nap-ffky, 24 h |  |  |
| Nap-ffk(AcNH-DEDDDLLIG)y |  |  |  |  | proteolytic-resistant to enterokinase | Nap-ffky, 24 h | Nap-ffky, 24 h |  |  |
| CC[C@H](C)[C@H](NC(=O)[C@H](CC(C)C)NC(=O)[C@H](CC(C)C)NC(=O)[C@H](CC(=O)O)NC(=O)[C@H](CC(=O)O)NC(=O)[C@H](CC(=O)O)NC(=O)[C@H](CCC(=O)O)NC(=O)[C@@H](N)CC(=O)O)C(=O)NCC(=O)NCCCC[C@@H](NC(=O)[C@@H](Cc1ccccc1)NC(=O)[C@@H](Cc1ccccc1)NC(=O)Cc1ccc2ccccc2c1)C(=O)N[C@H](Cc1ccc(O)cc1)C(=O)O [compound 1, Nap-ffk(NH2-DEDDDLLIG)y] (H-DEDDDLLIG-X1) | undergoes proteolytic cleavage to form DEDDDLLIG and Nap-ffky |  | 44 | proteolytic-resistant |  |  |  | about 90% | ~80 |
